US10004701B2, “Methods and compositions for treating infection” (UNIVERSITY OF ROCHESTER, priority 2012, dated 2018)
Structures can show the parent of a compound that is named as a salt. Where two headings read alike, the source gives them in different places.

Key:
Test in all cases: AK assay 384-well format, Prestwick library screening
K. pneumoniae = type: cell-based, Klebsiella pneumoniae; conditions: 50 μM final drug concentration; for fold induction at 50 µM: Klebsiella pneumoniae, 3 h
E. coli = type: cell-based, Escherichia coli; conditions: 50 μM final drug concentration; for fold induction at 50 µM: Escherichia coli, 3 h
E. faecium = type: cell-based, Enterococcus faecium; conditions: 50 μM final drug concentration; for fold induction at 50 µM: Enterococcus faecium, 3 h
E. cloacae = type: cell-based, Enterobacter cloacae; conditions: 50 μM final drug concentration; for fold induction at 50 µM: Enterobacter cloacae, 3 h
P. aeruginosa = type: cell-based, Pseudomonas aeruginosa; conditions: 50 μM final drug concentration; for fold induction at 50 µM: Pseudomonas aeruginosa, 3 h
[1] = tested on: S. aureus strain USA300-0114; type: cell-based, Staphylococcus aureus; conditions: 50 μM final drug concentration; for fold induction at 50 µM: Staphylococcus aureus, USA300, 3 h
[2] = tested on: A. baumannii strain 98-37-09; type: cell-based, Acinetobacter baumannii; conditions: 50 μM final drug concentration; for fold induction at 50 µM: Acinetobacter baumannii, 983709, 3 h
[3] = planktonic, cutoff for positive-scoring molecules 3-fold increase, read-out: AK-based Prestwick Library Screening Results, K. pneumoniae (fold increase in extracellular AK activity)
[4] = planktonic, cutoff for positive-scoring molecules 3-fold increase, read-out: AK-based Prestwick Library Screening Results, E. coli (fold increase in extracellular AK activity)
[5] = planktonic, cutoff for positive-scoring molecules 3-fold increase, read-out: AK-based Prestwick Library Screening Results, E. faecium (fold increase in extracellular AK activity)
[6] = planktonic, cutoff for positive-scoring molecules 3-fold increase, read-out: AK-based Prestwick Library Screening Results, E. cloacae (fold increase in extracellular AK activity)
[7] = planktonic, cutoff for positive-scoring molecules 3-fold increase, read-out: AK-based Prestwick Library Screening Results, P. aeruginosa (fold increase in extracellular AK activity)
[8] = planktonic, cutoff for positive-scoring molecules 3-fold increase, read-out: AK-based Prestwick Library Screening Results, S. aureus (fold increase in extracellular AK activity)
[9] = planktonic, cutoff for positive-scoring molecules 3-fold increase, read-out: AK-based Prestwick Library Screening Results, A. baumannii (fold increase in extracellular AK activity)
[10] = cutoff for positive-scoring molecules 3-fold increase, read-out: AK-based Prestwick Library Screening Results, K. pneumoniae (fold increase in extracellular AK activity)
[11] = cutoff for positive-scoring molecules 3-fold increase, read-out: AK-based Prestwick Library Screening Results, E. coli (fold increase in extracellular AK activity)
[12] = cutoff for positive-scoring molecules 3-fold increase, read-out: AK-based Prestwick Library Screening Results, E. faecium (fold increase in extracellular AK activity)
[13] = cutoff for positive-scoring molecules 3-fold increase, read-out: AK-based Prestwick Library Screening Results, E. cloacae (fold increase in extracellular AK activity)
[14] = cutoff for positive-scoring molecules 3-fold increase, read-out: AK-based Prestwick Library Screening Results, P. aeruginosa (fold increase in extracellular AK activity)
[15] = cutoff for positive-scoring molecules 3-fold increase, read-out: AK-based Prestwick Library Screening Results, S. aureus (fold increase in extracellular AK activity)
[16] = cutoff for positive-scoring molecules 3-fold increase, read-out: AK-based Prestwick Library Screening Results, A. baumannii (fold increase in extracellular AK activity)

## C/C(=C(\CCOP(=O)(O)O)SC(=O)c1ccccc1)N(C=O)Cc1cnc(C)nc1N [Benfotiamine]
K. pneumoniae; [3]
  fold induction at 50 µM: 0.6
E. coli; [4]
  fold induction at 50 µM: 0.7
E. faecium; [5]
  fold induction at 50 µM: 0.9
E. cloacae; [6]
  fold induction at 50 µM: 0.8
P. aeruginosa; [7]
  fold induction at 50 µM: 0.6
[1]; [8]
  fold induction at 50 µM: 0.5
[2]; [9]
  fold induction at 50 µM: 0.7

## CCCCOc1cc(C(=O)OCCN(CC)CC)ccc1N [Benoxinate hydrochloride]
K. pneumoniae; planktonic K. pneumoniae, 384-well, cutoff for positive-scoring molecules 3-fold increase, read-out: AK-based Prestwick Library Screening Results: K. pneumoniae (increase in extracellular AK activity)
  fold induction at 50 µM: 1
E. coli; planktonic E. coli, 384-well, cutoff for positive-scoring molecules 3-fold increase, read-out: AK-based Prestwick Library Screening Results: E. coli (increase in extracellular AK activity)
  fold induction at 50 µM: 1.3
E. faecium; planktonic E. faecium, 384-well, cutoff for positive-scoring molecules 3-fold increase, read-out: AK-based Prestwick Library Screening Results: E. faecium (increase in extracellular AK activity)
  fold induction at 50 µM: 0.9
E. cloacae; planktonic E. cloacae, 384-well, cutoff for positive-scoring molecules 3-fold increase, read-out: AK-based Prestwick Library Screening Results: E. cloacae (increase in extracellular AK activity)
  fold induction at 50 µM: 1.4
P. aeruginosa; planktonic P. aeruginosa, 384-well, cutoff for positive-scoring molecules 3-fold increase, read-out: AK-based Prestwick Library Screening Results: P. aeruginosa (increase in extracellular AK activity)
  fold induction at 50 µM: 0.9
[1]; planktonic S. aureus, 384-well, cutoff for positive-scoring molecules 3-fold increase, read-out: AK-based Prestwick Library Screening Results: S. aureus (increase in extracellular AK activity)
  fold induction at 50 µM: 1
[2]; planktonic A. baumannii, 384-well, cutoff for positive-scoring molecules 3-fold increase, read-out: AK-based Prestwick Library Screening Results: A. baumannii (increase in extracellular AK activity)
  fold induction at 50 µM: 1.1

## O=C(CCCN1CCC(n2c(O)nc3ccccc32)CC1)c1ccc(F)cc1 [Benperidol]
K. pneumoniae; planktonic K. pneumoniae, cutoff for positive-scoring molecules 3-fold increase, read-out: AK-based Prestwick Library Screening Results, K. pneumoniae (increase in extracellular AK activity)
  fold induction at 50 µM: 0.5
E. coli; planktonic E. coli, cutoff for positive-scoring molecules 3-fold increase, read-out: AK-based Prestwick Library Screening Results, E. coli (increase in extracellular AK activity)
  fold induction at 50 µM: 0.6
E. faecium; planktonic E. faecium, cutoff for positive-scoring molecules 3-fold increase, read-out: AK-based Prestwick Library Screening Results, E. faecium (increase in extracellular AK activity)
  fold induction at 50 µM: 1
E. cloacae; planktonic E. cloacae, cutoff for positive-scoring molecules 3-fold increase, read-out: AK-based Prestwick Library Screening Results, E. cloacae (increase in extracellular AK activity)
  fold induction at 50 µM: 0.6
P. aeruginosa; planktonic P. aeruginosa, cutoff for positive-scoring molecules 3-fold increase, read-out: AK-based Prestwick Library Screening Results, P. aeruginosa (increase in extracellular AK activity)
  fold induction at 50 µM: 0.6
[1]; planktonic S. aureus, cutoff for positive-scoring molecules 3-fold increase, read-out: AK-based Prestwick Library Screening Results, S. aureus (increase in extracellular AK activity)
  fold induction at 50 µM: 0.5
[2]; planktonic A. baumannii, cutoff for positive-scoring molecules 3-fold increase, read-out: AK-based Prestwick Library Screening Results, A. baumannii (increase in extracellular AK activity)
  fold induction at 50 µM: 0.5

## NC(CO)C(=O)NNCc1ccc(O)c(O)c1O (stereo not drawn) [Benserazide hydrochloride]
K. pneumoniae; [10]
  fold induction at 50 µM: 1.2
E. coli; [11]
  fold induction at 50 µM: 1.3
E. faecium; [12]
  fold induction at 50 µM: 0.9
E. cloacae; [13]
  fold induction at 50 µM: 1.8
P. aeruginosa; [14]
  fold induction at 50 µM: 1.1
[1]; [15]
  fold induction at 50 µM: 1.4
[2]; [16]
  fold induction at 50 µM: 1

## NC(=NCc1ccccc1)NC(=O)c1nc(Cl)c(N)nc1N [Benzamil hydrochloride]
K. pneumoniae; [3]
  fold induction at 50 µM: 0.6
E. coli; [4]
  fold induction at 50 µM: 0.6
E. faecium; [5]
  fold induction at 50 µM: 1.1
E. cloacae; [6]
  fold induction at 50 µM: 0.7
P. aeruginosa; [7]
  fold induction at 50 µM: 0.6
[1]; [8]
  fold induction at 50 µM: 0.7
[2]; [9]
  fold induction at 50 µM: 0.6

## CC1(C)S[C@@H]2[C@H](NC(=O)Cc3ccccc3)C(=O)N2[C@H]1C(=O)O.CC1(C)S[C@@H]2[C@H](NC(=O)Cc3ccccc3)C(=O)N2[C@H]1C(=O)O.c1ccc(CNCCNCc2ccccc2)cc1 [Benzathine benzylpenicillin]
K. pneumoniae; planktonic K. pneumoniae, positive cutoff 3-fold increase
  AK-based Prestwick library screening result, K. pneumoniae (fold increase in extracellular AK activity): 1.0
E. coli; planktonic E. coli, positive cutoff 3-fold increase
  AK-based Prestwick library screening result, E. coli (fold increase in extracellular AK activity): 15.6
E. faecium; planktonic E. faecium, positive cutoff 3-fold increase
  AK-based Prestwick library screening result, E. faecium (fold increase in extracellular AK activity): 1.6
E. cloacae; planktonic E. cloacae, positive cutoff 3-fold increase
  AK-based Prestwick library screening result, E. cloacae (fold increase in extracellular AK activity): 1.6
P. aeruginosa; planktonic P. aeruginosa, positive cutoff 3-fold increase
  AK-based Prestwick library screening result, P. aeruginosa (fold increase in extracellular AK activity): 1.1
[1]; planktonic S. aureus, positive cutoff 3-fold increase
  AK-based Prestwick library screening result, S. aureus (fold increase in extracellular AK activity): 1.0
[2]; planktonic A. baumannii, positive cutoff 3-fold increase
  AK-based Prestwick library screening result, A. baumannii (fold increase in extracellular AK activity): 5.9

## CCc1oc2ccccc2c1C(=O)c1cc(Br)c(O)c(Br)c1 [Benzbromarone]
K. pneumoniae; planktonic, cutoff for positive 3-fold increase, read-out: AK-based Prestwick Library Screening Results, K. pneumoniae (fold increase in extracellular AK activity)
  fold induction at 50 µM: 0.9
E. coli; planktonic, cutoff for positive 3-fold increase, read-out: AK-based Prestwick Library Screening Results, E. coli (fold increase in extracellular AK activity)
  fold induction at 50 µM: 1.1
E. faecium; planktonic, cutoff for positive 3-fold increase, read-out: AK-based Prestwick Library Screening Results, E. faecium (fold increase in extracellular AK activity)
  fold induction at 50 µM: 1.2
E. cloacae; planktonic, cutoff for positive 3-fold increase, read-out: AK-based Prestwick Library Screening Results, E. cloacae (fold increase in extracellular AK activity)
  fold induction at 50 µM: 1.4
P. aeruginosa; planktonic, cutoff for positive 3-fold increase, read-out: AK-based Prestwick Library Screening Results, P. aeruginosa (fold increase in extracellular AK activity)
  fold induction at 50 µM: 1.5
[1]; planktonic, cutoff for positive 3-fold increase, read-out: AK-based Prestwick Library Screening Results, S. aureus (fold increase in extracellular AK activity)
  fold induction at 50 µM: 0.4
[2]; planktonic, cutoff for positive 3-fold increase, read-out: AK-based Prestwick Library Screening Results, A. baumannii (fold increase in extracellular AK activity)
  fold induction at 50 µM: 1.4

## CCOC(=O)c1ccc(N)cc1 [Benzocaine]
K. pneumoniae; [10]
  fold induction at 50 µM: 0.9
E. coli; [11]
  fold induction at 50 µM: 1.1
E. faecium; [12]
  fold induction at 50 µM: 1
E. cloacae; [13]
  fold induction at 50 µM: 1.6
P. aeruginosa; [14]
  fold induction at 50 µM: 1.1
[1]; [15]
  fold induction at 50 µM: 1.2
[2]; [16]
  fold induction at 50 µM: 1.2

## CCCCNc1ccc(C(=O)OCCOCCOCCOCCOCCOCCOCCOCCOCCOC)cc1 [Benzonatate]
K. pneumoniae; 384-well format, cutoff for positive-scoring molecules 3-fold increase, read-out: AK-based Prestwick Library Screening Results, K. pneumoniae (increase in extracellular AK activity)
  fold induction at 50 µM: 0.6
E. coli; 384-well format, cutoff for positive-scoring molecules 3-fold increase, read-out: AK-based Prestwick Library Screening Results, E. coli (increase in extracellular AK activity)
  fold induction at 50 µM: 0.7
E. faecium; 384-well format, cutoff for positive-scoring molecules 3-fold increase, read-out: AK-based Prestwick Library Screening Results, E. faecium (increase in extracellular AK activity)
  fold induction at 50 µM: 0.8
E. cloacae; 384-well format, cutoff for positive-scoring molecules 3-fold increase, read-out: AK-based Prestwick Library Screening Results, E. cloacae (increase in extracellular AK activity)
  fold induction at 50 µM: 0.7
P. aeruginosa; 384-well format, cutoff for positive-scoring molecules 3-fold increase, read-out: AK-based Prestwick Library Screening Results, P. aeruginosa (increase in extracellular AK activity)
  fold induction at 50 µM: 0.6
[1]; 384-well format, cutoff for positive-scoring molecules 3-fold increase, read-out: AK-based Prestwick Library Screening Results, S. aureus (increase in extracellular AK activity)
  fold induction at 50 µM: 0.7
[2]; 384-well format, cutoff for positive-scoring molecules 3-fold increase, read-out: AK-based Prestwick Library Screening Results, A. baumannii (increase in extracellular AK activity)
  fold induction at 50 µM: 0.7
